Assay results reported in article PMC7486443, “Generation of Phenothiazine with Potent Anti-TLK1 Activity for Prostate Cancer Therapy” (iScience, 2020).

Legend:
Assay in all cases: biochemical
Parameters in all cases: DiscoverX KINOMEscan scanMAX competition binding panel, single concentration, percent of control; remaining binding: dose or concentration left out as unconfirmed
Settings in all cases: KINOMEscan binding, percent of control; read-out: Table S4_SCANMAX REPORT - related to Fig. 1 / Percent Control
MAP4K5 = MAP4K5 (Homo sapiens, UniProt Q9Y4K4)
SRMS = SRMS (Homo sapiens, UniProt Q9H3Y6)
MAP3K3 = MAP3K3 (Homo sapiens, UniProt Q99759)
MRCKA = molecular target: T1, MRCKA (Homo sapiens, UniProt Q5VT25)
T1 construct: gene CDC42BPA

FLT1 = FLT1 (Homo sapiens, UniProt P17948)
PAK4 = PAK4 (Homo sapiens, UniProt O96013)
YES = molecular target: T2, YES (Homo sapiens, UniProt P07947)
T2 construct: gene YES1

TGFBR1 = TGFBR1 (Homo sapiens, UniProt P36897)
ERK8 = molecular target: T3, ERK8 (Homo sapiens, UniProt Q8TD08)
T3 construct: gene MAPK15

MERTK = MERTK (Homo sapiens, UniProt Q12866)
DCAMKL3 = molecular target: T4, DCAMKL3 (Homo sapiens, UniProt Q9C098)
T4 construct: gene DCLK3

[1] = molecular target: T5, RSK4(Kin.Dom.1-N-terminal) (Homo sapiens, UniProt Q9UK32)
T5 construct: gene RPS6KA6; Kin.Dom.1-N-terminal

[2] = molecular target: T6, ABL1(M351T)-phosphorylated (Homo sapiens, UniProt P00519, M351T)
T6 construct: phosphorylated

FLT3(ITD,D835V) = FLT3(ITD,D835V) (Homo sapiens, UniProt P36888, D835V/ITD)
ARK5 = molecular target: T7, ARK5 (Homo sapiens, UniProt O60285)
T7 construct: gene NUAK1

MEK2 = molecular target: T8, MEK2 (Homo sapiens, UniProt P36507)
T8 construct: gene MAP2K2

CDK2 = CDK2 (Homo sapiens, UniProt P24941)
EPHB4 = EPHB4 (Homo sapiens, UniProt P54760)

Sequence of TGFBR1 (P36897 whole entry): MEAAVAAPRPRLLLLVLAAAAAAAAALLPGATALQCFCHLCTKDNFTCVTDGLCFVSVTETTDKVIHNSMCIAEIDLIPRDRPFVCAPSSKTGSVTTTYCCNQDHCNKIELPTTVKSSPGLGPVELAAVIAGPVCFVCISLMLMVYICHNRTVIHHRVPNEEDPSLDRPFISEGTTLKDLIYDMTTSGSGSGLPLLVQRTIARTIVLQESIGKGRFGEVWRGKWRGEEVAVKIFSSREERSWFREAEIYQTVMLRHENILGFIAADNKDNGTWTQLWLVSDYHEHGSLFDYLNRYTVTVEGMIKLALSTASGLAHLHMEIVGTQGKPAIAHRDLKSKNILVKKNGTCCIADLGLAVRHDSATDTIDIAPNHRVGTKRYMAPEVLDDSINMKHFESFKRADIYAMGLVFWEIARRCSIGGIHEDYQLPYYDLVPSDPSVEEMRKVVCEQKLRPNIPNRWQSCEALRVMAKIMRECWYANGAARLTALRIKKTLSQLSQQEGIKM
T5 sequence (Q9UK32 whole entry): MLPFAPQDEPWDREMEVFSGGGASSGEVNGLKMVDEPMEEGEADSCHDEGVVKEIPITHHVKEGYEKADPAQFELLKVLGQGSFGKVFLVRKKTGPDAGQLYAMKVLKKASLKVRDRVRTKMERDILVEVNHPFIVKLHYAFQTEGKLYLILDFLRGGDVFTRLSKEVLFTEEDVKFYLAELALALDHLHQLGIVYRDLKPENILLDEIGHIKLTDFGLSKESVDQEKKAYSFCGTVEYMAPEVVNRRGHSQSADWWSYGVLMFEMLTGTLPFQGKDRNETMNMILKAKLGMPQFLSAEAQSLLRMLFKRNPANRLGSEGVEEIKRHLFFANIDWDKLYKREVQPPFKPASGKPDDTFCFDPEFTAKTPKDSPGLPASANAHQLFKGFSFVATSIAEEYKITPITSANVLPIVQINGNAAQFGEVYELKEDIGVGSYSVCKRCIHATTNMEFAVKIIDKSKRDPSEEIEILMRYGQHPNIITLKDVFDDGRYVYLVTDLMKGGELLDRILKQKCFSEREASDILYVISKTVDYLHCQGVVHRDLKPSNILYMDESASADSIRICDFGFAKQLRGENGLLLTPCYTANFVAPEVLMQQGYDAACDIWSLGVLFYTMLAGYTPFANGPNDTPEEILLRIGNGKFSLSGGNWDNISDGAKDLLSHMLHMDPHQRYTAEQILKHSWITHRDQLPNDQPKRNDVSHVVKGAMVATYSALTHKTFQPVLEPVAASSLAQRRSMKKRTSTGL
Sequence of FLT1 (P17948 whole entry): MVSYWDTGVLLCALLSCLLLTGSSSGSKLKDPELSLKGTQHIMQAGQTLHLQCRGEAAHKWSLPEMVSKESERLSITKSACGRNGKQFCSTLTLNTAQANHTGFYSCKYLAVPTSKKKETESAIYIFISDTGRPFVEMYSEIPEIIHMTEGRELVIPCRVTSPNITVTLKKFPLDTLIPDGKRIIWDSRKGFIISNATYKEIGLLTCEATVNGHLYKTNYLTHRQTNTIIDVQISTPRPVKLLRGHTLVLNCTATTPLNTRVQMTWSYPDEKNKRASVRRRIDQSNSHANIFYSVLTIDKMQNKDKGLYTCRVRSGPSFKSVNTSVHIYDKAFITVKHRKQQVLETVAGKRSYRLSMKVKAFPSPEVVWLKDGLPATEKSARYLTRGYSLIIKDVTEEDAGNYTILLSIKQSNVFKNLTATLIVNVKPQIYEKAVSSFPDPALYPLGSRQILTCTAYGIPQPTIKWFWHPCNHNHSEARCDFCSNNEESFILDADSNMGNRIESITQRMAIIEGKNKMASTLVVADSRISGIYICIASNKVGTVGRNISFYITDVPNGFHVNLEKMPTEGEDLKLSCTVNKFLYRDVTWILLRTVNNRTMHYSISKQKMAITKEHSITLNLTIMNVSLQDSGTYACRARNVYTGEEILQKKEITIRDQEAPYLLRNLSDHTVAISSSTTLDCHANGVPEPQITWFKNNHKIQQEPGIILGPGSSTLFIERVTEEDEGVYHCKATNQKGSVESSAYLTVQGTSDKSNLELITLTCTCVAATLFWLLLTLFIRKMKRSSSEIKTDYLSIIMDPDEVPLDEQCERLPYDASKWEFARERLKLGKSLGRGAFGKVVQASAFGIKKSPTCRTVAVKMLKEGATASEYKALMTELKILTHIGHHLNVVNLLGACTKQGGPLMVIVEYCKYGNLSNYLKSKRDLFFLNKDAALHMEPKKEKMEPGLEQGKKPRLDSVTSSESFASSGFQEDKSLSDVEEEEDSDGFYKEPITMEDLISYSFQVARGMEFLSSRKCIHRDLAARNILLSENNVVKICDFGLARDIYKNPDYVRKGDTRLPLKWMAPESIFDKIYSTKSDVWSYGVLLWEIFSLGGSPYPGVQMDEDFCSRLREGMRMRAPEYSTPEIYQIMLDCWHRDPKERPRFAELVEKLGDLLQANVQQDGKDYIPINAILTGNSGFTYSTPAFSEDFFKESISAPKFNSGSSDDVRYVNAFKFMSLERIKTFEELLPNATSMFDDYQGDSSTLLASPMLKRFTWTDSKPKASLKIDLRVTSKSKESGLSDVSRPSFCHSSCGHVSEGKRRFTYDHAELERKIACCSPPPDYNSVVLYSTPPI
T1 sequence (Q5VT25 whole entry): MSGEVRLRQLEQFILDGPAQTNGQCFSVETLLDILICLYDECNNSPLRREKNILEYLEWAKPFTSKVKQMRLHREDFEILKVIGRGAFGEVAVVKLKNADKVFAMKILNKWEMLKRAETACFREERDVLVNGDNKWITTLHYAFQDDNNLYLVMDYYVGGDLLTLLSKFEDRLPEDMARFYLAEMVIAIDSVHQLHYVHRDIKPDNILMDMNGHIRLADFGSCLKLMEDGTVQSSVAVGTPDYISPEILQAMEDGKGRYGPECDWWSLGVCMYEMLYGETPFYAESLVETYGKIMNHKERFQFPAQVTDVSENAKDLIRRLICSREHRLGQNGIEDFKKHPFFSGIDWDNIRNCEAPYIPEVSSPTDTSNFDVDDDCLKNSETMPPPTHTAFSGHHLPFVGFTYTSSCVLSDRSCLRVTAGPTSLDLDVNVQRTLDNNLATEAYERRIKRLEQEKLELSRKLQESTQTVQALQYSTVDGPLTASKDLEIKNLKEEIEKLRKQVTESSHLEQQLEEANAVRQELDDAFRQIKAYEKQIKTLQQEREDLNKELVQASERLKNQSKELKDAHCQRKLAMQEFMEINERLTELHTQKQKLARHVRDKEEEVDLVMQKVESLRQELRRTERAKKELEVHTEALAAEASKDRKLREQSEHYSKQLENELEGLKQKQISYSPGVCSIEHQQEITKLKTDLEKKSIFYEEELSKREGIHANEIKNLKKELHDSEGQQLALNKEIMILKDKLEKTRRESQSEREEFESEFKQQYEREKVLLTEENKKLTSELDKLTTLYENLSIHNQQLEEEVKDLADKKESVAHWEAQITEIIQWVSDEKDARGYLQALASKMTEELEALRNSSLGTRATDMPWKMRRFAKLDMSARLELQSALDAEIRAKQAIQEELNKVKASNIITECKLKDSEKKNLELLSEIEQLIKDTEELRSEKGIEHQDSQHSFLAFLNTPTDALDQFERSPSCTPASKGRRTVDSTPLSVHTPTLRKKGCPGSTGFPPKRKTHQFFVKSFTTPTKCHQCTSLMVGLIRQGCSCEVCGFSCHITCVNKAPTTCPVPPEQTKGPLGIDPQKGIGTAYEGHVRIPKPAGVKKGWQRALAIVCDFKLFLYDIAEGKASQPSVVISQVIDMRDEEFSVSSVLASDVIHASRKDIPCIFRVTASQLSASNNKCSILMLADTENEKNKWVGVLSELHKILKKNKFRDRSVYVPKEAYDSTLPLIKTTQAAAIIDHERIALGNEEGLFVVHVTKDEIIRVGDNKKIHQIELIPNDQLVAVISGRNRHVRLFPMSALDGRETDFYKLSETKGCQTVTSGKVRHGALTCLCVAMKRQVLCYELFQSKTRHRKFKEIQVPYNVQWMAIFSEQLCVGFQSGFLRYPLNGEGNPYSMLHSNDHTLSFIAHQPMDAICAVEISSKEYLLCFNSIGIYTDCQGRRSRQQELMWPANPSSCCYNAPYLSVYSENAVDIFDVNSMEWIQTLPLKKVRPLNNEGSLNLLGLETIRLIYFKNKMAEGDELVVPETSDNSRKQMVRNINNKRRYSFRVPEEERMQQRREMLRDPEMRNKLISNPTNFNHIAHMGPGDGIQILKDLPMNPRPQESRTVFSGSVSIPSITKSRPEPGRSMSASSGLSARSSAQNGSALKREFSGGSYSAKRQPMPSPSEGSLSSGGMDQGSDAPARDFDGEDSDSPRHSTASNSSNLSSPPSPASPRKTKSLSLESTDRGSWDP
T3 sequence (Q8TD08 whole entry): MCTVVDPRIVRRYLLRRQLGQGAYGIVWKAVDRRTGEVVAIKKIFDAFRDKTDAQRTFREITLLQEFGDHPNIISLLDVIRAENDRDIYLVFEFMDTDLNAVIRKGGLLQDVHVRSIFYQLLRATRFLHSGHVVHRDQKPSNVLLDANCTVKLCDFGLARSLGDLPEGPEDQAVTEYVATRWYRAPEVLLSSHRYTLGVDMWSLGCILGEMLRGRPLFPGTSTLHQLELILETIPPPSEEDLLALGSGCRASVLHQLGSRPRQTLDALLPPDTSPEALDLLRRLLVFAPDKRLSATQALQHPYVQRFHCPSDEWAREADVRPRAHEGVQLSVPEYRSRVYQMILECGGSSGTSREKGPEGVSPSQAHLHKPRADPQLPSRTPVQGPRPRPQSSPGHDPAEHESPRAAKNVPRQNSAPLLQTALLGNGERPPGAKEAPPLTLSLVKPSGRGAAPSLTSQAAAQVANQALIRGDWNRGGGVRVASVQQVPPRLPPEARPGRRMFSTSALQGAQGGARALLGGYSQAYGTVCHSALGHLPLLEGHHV

Compound: c1ccc2c(c1)Sc1ccccc1N2CCN1CCOCC1 [J54]
- remaining binding (MAP4K5): 68%
- remaining binding (SRMS): 100%
- remaining binding (MAP3K3): 100%
- remaining binding (MRCKA): 99%
- remaining binding (FLT1): 98%
- remaining binding (PAK4): 99%
- remaining binding (YES): 100%
- remaining binding (TGFBR1): 100%
- remaining binding (ERK8): 89%
- remaining binding (MERTK): 100%
- remaining binding (DCAMKL3): 95%
- remaining binding [1]: 100%
- remaining binding [2]: 100%
- remaining binding (FLT3(ITD,D835V)): 57%
- remaining binding (ARK5): 79%
- remaining binding (MEK2): 100%
- remaining binding (CDK2): 92%
- remaining binding (EPHB4): 100%
